Measurements from patent publication US20260365670A1, “EGFR INHIBITORS AND USES THEREOF” (DIZAL (JIANGSU) PHARMACEUTICAL CO., LTD., priority 2022, published 2026).
Read-outs that look alike come from different tables or passages of the source.

Key:
EGFR (C797S L858R) = target: T1, EGFR (C797S L858R) (Homo sapiens, UniProt P00533, C797S/L858R); assay: Inhibition of EGFR (C797S L858R) biochemical enzymatic activity (HTRF); details: 1 mM ATP
T1 construct: purchased signalchem
Procedure, shortened: (§1)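 Following 1 h at room temperature with titrated compound, 1 mM ATP and 1 μM biotin-TK peptide (Mg2+/Mn2+, CHAPS, DTT, 0.5% DMSO buffer), EDTA-containing detection reagent terminated each enzyme reaction. Time-resolved fluorescence (ex 320, em 665/615 nm) ratio tracked activity. IC50 values came from four-parameter fits.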

A-431 = assay: Cell proliferation assay, A-431 cells (GI50, Table 6); assay type: cell-based
EGFR Exon19Del = target: T2, EGFR Exon19Del (Homo sapiens, UniProt P00533, DEL746-750); assay: Inhibition of EGFR Exon19Del biochemical enzymatic activity (HTRF); details: read-out: IC50 @Del19
T2 construct: purchased Carna Bio
T2 sequence (P00533 with tags, fused parts or gaps DEL746-750 limits assumed): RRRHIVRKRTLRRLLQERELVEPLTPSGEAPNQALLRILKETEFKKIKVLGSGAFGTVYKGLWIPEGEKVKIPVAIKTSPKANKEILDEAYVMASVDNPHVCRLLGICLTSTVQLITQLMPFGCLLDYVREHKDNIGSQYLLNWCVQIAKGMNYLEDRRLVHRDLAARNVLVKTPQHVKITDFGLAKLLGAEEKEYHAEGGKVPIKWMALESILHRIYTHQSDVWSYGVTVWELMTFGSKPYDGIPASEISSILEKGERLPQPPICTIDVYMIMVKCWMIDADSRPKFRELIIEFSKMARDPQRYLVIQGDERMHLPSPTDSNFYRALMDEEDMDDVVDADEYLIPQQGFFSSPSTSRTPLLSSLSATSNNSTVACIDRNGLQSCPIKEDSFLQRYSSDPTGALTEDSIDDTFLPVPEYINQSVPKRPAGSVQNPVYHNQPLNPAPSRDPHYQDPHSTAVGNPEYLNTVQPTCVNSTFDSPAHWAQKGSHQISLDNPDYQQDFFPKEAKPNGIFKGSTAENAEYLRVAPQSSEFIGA
Procedure, shortened: as §1

EGFR Exon19Del/T790M = target: T3, EGFR Exon19Del/T790M (Homo sapiens, UniProt P00533, DEL746-750/T790M); assay: Inhibition of EGFR Exon19Del/T790M biochemical enzymatic activity (HTRF); details: 1 mM ATP
T3 construct: purchased Carna Bio
Procedure, shortened: as §1

EGFR[T790M/C797S/L858R] = target: T4, EGFR[T790M/C797S/L858R] (Homo sapiens, UniProt P00533, C797S/L858R/T790M); assay: Inhibition of EGFR[T790M/C797S/L858R] biochemical enzymatic activity (HTRF); details: 1 mM ATP
T4 construct: purchased Carna Bio
T4 sequence (P00533 25-1210 T790M/C797S/L858R): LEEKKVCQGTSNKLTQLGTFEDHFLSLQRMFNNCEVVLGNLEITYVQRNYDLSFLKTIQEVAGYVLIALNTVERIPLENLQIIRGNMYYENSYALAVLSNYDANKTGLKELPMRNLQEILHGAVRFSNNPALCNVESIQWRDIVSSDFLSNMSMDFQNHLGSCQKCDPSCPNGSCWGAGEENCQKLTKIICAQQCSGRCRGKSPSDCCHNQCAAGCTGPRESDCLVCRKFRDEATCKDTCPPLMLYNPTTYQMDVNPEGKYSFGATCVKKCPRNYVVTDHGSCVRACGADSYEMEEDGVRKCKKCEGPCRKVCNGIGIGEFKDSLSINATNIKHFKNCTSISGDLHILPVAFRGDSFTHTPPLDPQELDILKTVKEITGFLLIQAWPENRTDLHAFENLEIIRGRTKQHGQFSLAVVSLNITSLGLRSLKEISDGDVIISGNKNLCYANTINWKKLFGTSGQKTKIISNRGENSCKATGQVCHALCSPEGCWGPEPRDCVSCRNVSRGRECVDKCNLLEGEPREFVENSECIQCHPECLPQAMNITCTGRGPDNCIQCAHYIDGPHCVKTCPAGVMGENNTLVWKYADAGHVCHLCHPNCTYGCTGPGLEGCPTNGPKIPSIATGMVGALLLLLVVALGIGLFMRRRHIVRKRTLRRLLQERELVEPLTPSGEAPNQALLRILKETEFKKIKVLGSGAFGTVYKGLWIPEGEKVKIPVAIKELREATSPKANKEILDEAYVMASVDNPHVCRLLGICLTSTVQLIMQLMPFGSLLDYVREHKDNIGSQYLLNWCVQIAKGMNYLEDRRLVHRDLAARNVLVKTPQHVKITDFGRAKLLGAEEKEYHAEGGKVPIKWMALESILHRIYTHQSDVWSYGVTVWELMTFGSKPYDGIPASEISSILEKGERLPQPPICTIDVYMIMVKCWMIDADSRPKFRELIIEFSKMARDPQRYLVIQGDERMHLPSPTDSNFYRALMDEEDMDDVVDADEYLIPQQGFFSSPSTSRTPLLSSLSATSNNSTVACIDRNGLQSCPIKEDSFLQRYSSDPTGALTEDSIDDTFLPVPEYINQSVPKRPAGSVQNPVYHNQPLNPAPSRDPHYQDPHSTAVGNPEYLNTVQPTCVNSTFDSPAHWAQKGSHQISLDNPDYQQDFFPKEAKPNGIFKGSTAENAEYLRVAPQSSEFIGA
Procedure, shortened: as §1

EGFR wild type = target: T5, EGFR wild type (Homo sapiens, UniProt P00533); assay: Inhibition of EGFR wild type biochemical enzymatic activity (HTRF); details: 1 mM ATP
T5 construct: purchased Carna Bio
Procedure, shortened: as §1

EGFR L858R = target: T6, EGFR L858R (Homo sapiens, UniProt P00533, L858R); assay: Inhibition of EGFR L858R biochemical enzymatic activity (HTRF); details: 1 mM ATP
T6 construct: purchased Carna Bio
T6 sequence (P00533 25-1210 L858R): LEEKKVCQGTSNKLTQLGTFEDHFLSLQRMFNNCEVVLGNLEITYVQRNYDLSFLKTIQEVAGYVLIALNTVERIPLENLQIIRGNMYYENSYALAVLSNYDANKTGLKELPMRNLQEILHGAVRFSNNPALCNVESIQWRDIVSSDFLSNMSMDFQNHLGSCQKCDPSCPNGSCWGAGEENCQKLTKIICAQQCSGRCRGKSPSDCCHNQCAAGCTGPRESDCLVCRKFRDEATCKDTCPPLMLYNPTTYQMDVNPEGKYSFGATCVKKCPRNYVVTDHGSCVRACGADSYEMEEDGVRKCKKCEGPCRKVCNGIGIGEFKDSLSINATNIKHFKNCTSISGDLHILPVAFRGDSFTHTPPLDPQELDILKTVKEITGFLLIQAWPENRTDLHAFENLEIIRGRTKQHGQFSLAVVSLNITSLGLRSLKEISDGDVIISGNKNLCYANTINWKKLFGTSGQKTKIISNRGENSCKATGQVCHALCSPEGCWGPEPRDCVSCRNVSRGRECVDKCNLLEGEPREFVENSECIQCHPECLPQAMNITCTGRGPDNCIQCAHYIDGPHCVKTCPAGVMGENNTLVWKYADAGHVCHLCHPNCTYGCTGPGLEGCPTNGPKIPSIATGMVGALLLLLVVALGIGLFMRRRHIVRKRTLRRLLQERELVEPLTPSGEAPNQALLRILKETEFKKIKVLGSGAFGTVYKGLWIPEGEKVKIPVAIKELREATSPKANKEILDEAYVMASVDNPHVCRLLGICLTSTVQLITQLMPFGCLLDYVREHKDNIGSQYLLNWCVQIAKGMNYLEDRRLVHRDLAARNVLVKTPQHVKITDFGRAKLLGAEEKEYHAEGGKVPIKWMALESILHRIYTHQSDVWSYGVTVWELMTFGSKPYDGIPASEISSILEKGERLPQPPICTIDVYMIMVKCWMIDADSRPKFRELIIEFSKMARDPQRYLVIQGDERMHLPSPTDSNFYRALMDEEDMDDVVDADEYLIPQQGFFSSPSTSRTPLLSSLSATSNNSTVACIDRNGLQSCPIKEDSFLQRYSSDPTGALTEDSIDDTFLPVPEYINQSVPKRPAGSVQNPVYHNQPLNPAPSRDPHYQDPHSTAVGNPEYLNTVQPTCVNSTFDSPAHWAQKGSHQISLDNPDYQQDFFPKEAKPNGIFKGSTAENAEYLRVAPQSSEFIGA
Procedure, shortened: as §1

EGFR (d746-750 C797S) = target: T7, EGFR (d746-750 C797S) (Homo sapiens, UniProt P00533, C797S/DEL746-750); assay: Inhibition of EGFR (d746-750 C797S) biochemical enzymatic activity (HTRF); details: 1 mM ATP
T7 construct: purchased signalchem
T7 sequence (P00533 with tags, fused parts or gaps DEL746-750/C797S limits assumed): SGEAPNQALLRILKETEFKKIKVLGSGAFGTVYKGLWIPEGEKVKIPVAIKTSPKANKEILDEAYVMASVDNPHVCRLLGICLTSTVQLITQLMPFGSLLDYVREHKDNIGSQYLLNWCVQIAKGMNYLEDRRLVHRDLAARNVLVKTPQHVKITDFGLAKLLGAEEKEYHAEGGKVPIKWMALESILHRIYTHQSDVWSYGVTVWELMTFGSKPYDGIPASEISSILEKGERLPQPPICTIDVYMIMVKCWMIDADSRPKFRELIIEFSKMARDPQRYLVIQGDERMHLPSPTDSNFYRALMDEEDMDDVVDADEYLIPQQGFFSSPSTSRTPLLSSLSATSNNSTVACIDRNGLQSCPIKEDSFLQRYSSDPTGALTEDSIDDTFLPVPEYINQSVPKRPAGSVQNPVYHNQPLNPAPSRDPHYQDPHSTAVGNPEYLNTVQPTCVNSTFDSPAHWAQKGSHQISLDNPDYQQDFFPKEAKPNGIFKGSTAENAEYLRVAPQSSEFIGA
Procedure, shortened: as §1

[1] = tested on: Ba/F3 cells expressing EGFR mutations; assay: Cell proliferation assay, Ba/F3 cells expressing EGFR mutations (CellTiter-Glo, 72 hours); assay type: cell-based
Procedure, shortened: (§2)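 GI50 is the concentration giving 50% proliferation inhibition. Growth for this was normalised to a baseline viability reading taken when compound was added, and to DMSO wells. PC-9 (500 cells/well) and mutant-EGFR Ba/F3 (5000 cells/well) are treated after overnight seeding in RPMI1640-based medium.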

PC-9 = assay: Cell proliferation assay, PC-9 cells (CellTiter-Glo, 72 hours); assay type: cell-based; details: PC9 cells, read-out: GI50 PC9
Procedure, shortened: as §2

EGFR L858R/T790M = target: T8, EGFR L858R/T790M (Homo sapiens, UniProt P00533, L858R/T790M); assay: Inhibition of EGFR L858R/T790M biochemical enzymatic activity (HTRF); details: 1 mM ATP
T8 construct: purchased Carna Bio
T8 sequence (P00533 25-1210 T790M/L858R): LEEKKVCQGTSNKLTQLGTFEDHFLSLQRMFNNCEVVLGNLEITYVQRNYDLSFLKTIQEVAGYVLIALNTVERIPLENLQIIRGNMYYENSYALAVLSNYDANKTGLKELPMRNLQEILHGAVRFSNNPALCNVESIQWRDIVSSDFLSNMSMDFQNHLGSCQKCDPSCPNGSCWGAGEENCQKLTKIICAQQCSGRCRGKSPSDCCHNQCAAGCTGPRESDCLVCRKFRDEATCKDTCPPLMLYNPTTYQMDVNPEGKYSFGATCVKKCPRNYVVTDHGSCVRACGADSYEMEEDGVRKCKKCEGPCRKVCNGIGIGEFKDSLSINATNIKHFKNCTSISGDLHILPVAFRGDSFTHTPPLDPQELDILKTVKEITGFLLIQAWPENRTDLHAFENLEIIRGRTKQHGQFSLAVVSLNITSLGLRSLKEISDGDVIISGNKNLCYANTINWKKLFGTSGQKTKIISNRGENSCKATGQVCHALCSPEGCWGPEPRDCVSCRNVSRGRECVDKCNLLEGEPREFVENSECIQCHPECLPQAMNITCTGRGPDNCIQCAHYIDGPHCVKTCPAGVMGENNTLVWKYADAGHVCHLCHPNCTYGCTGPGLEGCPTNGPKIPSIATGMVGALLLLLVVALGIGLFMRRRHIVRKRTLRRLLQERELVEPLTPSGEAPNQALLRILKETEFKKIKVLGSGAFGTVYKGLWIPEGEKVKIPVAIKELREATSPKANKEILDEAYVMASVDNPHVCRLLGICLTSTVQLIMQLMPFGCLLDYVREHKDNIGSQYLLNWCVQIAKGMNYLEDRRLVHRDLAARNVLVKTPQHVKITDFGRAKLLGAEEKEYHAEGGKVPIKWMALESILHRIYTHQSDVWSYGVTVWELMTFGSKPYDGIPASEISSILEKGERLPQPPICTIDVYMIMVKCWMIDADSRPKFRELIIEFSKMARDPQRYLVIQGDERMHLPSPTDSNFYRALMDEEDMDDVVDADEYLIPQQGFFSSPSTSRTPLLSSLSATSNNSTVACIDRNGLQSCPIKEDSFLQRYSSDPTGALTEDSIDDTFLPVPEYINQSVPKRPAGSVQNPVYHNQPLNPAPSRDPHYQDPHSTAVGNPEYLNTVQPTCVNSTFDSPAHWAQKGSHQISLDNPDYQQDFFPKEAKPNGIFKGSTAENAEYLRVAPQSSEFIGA
Procedure, shortened: as §1

[2] = target: T9, EGFR[T790M/C797S/d746-750] (Homo sapiens, UniProt P00533, C797S/DEL746-750/T790M); assay: Inhibition of EGFR[T790M/C797S/d746-750] biochemical enzymatic activity (HTRF)
T9 construct: purchased Carna Bio
Procedure, shortened: as §1

[3] = EGFR L858-C797S, 1 h, room temperature, read-out: IC50 (nM) @L858-C797S
[4] = Homo sapiens, A-431, A-431 cells
[5] = EGFR Del19, 1 mM ATP, 1 h, room temperature
[6] = EGFR Del19-T790M, 1 h, room temperature, read-out: IC50 (nM) @Del19-T790M
[7] = EGFR T790M-C797S-L858R, 1 h, room temperature, read-out: IC50 (nM) @T790M- C797S - L858R
[8] = EGFR WT, 1 h, room temperature, read-out: IC50 (nM) @WT
[9] = 1 h, room temperature, read-out: IC50 (nM) @L858R
[10] = EGFR Del19-C797S, 1 h, room temperature, read-out: IC50 (nM) @Del19-C797S
[11] = Mus musculus, BaF3, 72 h, BaF3 cells, EGFR DEL19 - C797S, read-out: GI50 DEL19 - C797S/BaF3
[12] = Mus musculus, BaF3, 72 h, BaF3 cells, EGFR DEL19 - T790-C797S, read-out: GI50 DEL19 - T790-C797S/BaF3
[13] = Mus musculus, BaF3, 72 h, BaF3 cells, EGFR L858R - C797S, read-out: GI50 L858R - C797S/BaF3
[14] = Mus musculus, BaF3, 72 h, BaF3 cells, EGFR L858R - T790-C797S, read-out: GI50 L858R - T790-C797S/BaF3
[15] = Mus musculus, BaF3, 72 h, BaF3 cells, EGFR L858R - T790M, read-out: GI50 L858R - T790M/BaF3
[16] = Mus musculus, BaF3, 72 h, BaF3 cells, EGFR L858R, read-out: GI50 L858R/BaF3
[17] = Mus musculus, BaF3, 72 h, EGFR DEL19 - T790M, read-out: GI50 DEL19 - T790M
[18] = EGFR L858R-T790M, 1 h, room temperature, read-out: IC50 (nM) @L858R-T790M
[19] = EGFR T790M-C797S-Del19, 1 mM ATP, 1 h, room temperature, read-out: IC50 (nM) @T790M - C797S - Del19
[20] = EGFR (C797S L858R), 1 h at room temperature, read-out: IC50 @L858-C797S
[21] = EGFR Exon19Del, 1 mM ATP, 1 h at room temperature
[22] = EGFR Exon19Del/T790M, 1 h at room temperature, read-out: IC50 @Del19-T790M
[23] = EGFR[T790M/C797S/L858R], 1 h at room temperature, read-out: IC50 @T790M- C797S - L858R
[24] = EGFR wild type, 1 h at room temperature, read-out: IC50 @WT
[25] = 1 h at room temperature, read-out: IC50 @L858R
[26] = EGFR (d746-750 C797S), 1 h at room temperature, read-out: IC50 @Del19-C797S
[27] = EGFR L858R/T790M, 1 h at room temperature, read-out: IC50 @L858R-T790M
[28] = EGFR[T790M/C797S/d746-750], 1 mM ATP, 1 h at room temperature, read-out: IC50 @T790M - C797S - Del19

Compound	IC50 (EGFR (C797S L858R); [3])	GI50 (A-431; [4])	IC50 (EGFR Exon19Del; [5])	IC50 (EGFR Exon19Del/T790M; [6])	IC50 (EGFR[T790M/C797S/L858R]; [7])	IC50 (EGFR wild type; [8])	IC50 (EGFR L858R; [9])	IC50 (EGFR (d746-750 C797S); [10])	GI50 [1, 11]	GI50 [1, 12]	GI50 [1, 13]	GI50 [1, 14]	GI50 [1, 15]	GI50 [1, 16]	GI50 [1, 17]	GI50 (PC-9; Homo sapiens, PC-9, 72 h)	IC50 (EGFR L858R/T790M; [18])	IC50 [2, 19]	IC50 (EGFR (C797S L858R); [20])	IC50 (EGFR Exon19Del; [21])	other results
Cc1cc2cc(n1)-c1cnn(C)c1OCCN1CC3CCC(CC3)(C1)n1c(nc3ccc(N4CC5CCN(C)C5C4)cc31)NC2=O (stereo not drawn) [Example B35]	–	6630 nM	–	–	–	–	–	–	10 nM	3 nM	108 nM	7 nM	20 nM	62 nM	3 nM	121 nM	–	–	185 nM	30 nM	IC50 (EGFR Exon19Del/T790M; [22]): 9 nM; IC50 (EGFR[T790M/C797S/L858R]; [23]): 5 nM; IC50 (EGFR wild type; [24]): > 5000 nM; IC50 (EGFR L858R; [25]): 378 nM; IC50 (EGFR (d746-750 C797S); [26]): 14 nM; IC50 (EGFR L858R/T790M; [27]): 13 nM; IC50 [2, 28]: 6 nM
Cc1cc2cc(n1)-c1cnn(C)c1OCCN1CC3CCC(C3)(C1)n1c(nc3ccc(N4CCC5(CCN(C)C5)CC4)cc31)NC2=O (single isomer, unassigned) [Example B52B]	–	–	–	–	–	–	–	–	–	–	–	–	–	–	–	–	–	–	3.2 nM	5.4 nM	GI50 (A-431; A-431 cells): 879 nM; IC50 (EGFR Exon19Del/T790M; [22]): 4.5 nM; IC50 (EGFR[T790M/C797S/L858R]; [23]): 1.6 nM; IC50 (EGFR wild type; [24]): 8.3 nM; IC50 (EGFR L858R; [25]): 6 nM; IC50 (EGFR (d746-750 C797S); [26]): 2.4 nM; GI50 ([1]; BaF3 cells, EGFR DEL19 - C797S, read-out: GI50 DEL19 - C797S/BaF3): 2 nM; GI50 ([1]; BaF3 cells, EGFR DEL19 - T790-C797S, read-out: GI50 DEL19 - T790-C797S/BaF3): 2 nM; GI50 ([1]; BaF3 cells, EGFR L858R - C797S, read-out: GI50 L858R - C797S/BaF3): 2 nM; GI50 ([1]; BaF3 cells, EGFR L858R - T790-C797S, read-out: GI50 L858R - T790-C797S/BaF3): 2 nM; GI50 ([1]; BaF3 cells, EGFR L858R - T790M, read-out: GI50 L858R - T790M/BaF3): 2 nM; GI50 ([1]; BaF3 cells, EGFR L858R, read-out: GI50 L858R/BaF3): 2 nM; GI50 ([1]; EGFR DEL19 - T790M, read-out: GI50 DEL19 - T790M): 7 nM; GI50 (PC-9): 4 nM; IC50 (EGFR L858R/T790M; [27]): 3.5 nM; IC50 [2, 28]: 2 nM
Cn1ncc2c1OCCN1CC3CCC(C3)(C1)n1c(nc3cc(F)c(N4CCOCC4)cc31)NC(=O)c1cc-2c(=O)n(C)c1 (single isomer, unassigned) [Example A118B]	37 nM	1120 nM	8.7 nM	7.4 nM	11 nM	3640 nM	110 nM	3.2 nM	0.68 nM	4.1 nM	8.2 nM	6.7 nM	19 nM	3.8 nM	1.8 nM	16 nM	61 nM	2.9 nM	–	–	–

Further lines, with some results ahead:

IC50 (EGFR (C797S L858R); [3])	GI50 (A-431; [4])	IC50 (EGFR Exon19Del; [5])	IC50 (EGFR Exon19Del/T790M; [6])	IC50 (EGFR[T790M/C797S/L858R]; [7])	IC50 (EGFR wild type; [8])	IC50 (EGFR L858R; [9])	IC50 (EGFR (d746-750 C797S); [10])	GI50 [1, 11]	GI50 [1, 12]	GI50 [1, 13]	GI50 [1, 14]	GI50 [1, 15]	GI50 [1, 16]	GI50 [1, 17]	GI50 (PC-9; Homo sapiens, PC-9, 72 h)	IC50 (EGFR L858R/T790M; [18])	IC50 [2, 19]	IC50 (EGFR (C797S L858R); [20])	IC50 (EGFR Exon19Del; [21])	Compound	other results
71 nM	4090 nM	13 nM	12 nM	52 nM	> 5000 nM	95 nM	9.9 nM	7.3 nM	36 nM	29 nM	18 nM	50 nM	5.5 nM	26 nM	34 nM	169 nM	8.9 nM	–	–	CN1CC2CN(c3ccc4nc5n(c4c3)C34CCC(CC3)CN(CCOc3c(cnn3C)-c3cc(cn(C)c3=O)C(=O)N5)C4)CC2C1 (stereo not drawn) [Example A126]	–
128 nM	3740 nM	29 nM	18 nM	359 nM	4060 nM	189 nM	25 nM	7.9 nM	43 nM	34 nM	21 nM	64 nM	7 nM	30 nM	35 nM	582 nM	15 nM	–	–	CN(C)CCCN(C)c1ccc2nc3n(c2c1)C12CCC(CC1)CN(CCOc1c(cnn1C)-c1cc(cn(C)c1=O)C(=O)N3)C2 [Example A125]	–
46 nM	4690 nM	41 nM	32 nM	900 nM	> 5000 nM	439 nM	1200 nM	15 nM	108 nM	172 nM	230 nM	255 nM	121 nM	63 nM	147 nM	230 nM	45 nM	–	–	Cn1ncc2c1OCCN1CC3CCC(CC3)(C1)n1c(nc3cc(F)c(N4CCOCC4)cc31)NC(=O)c1cc-2c(=O)n(C)c1 [Example A113, 6-Fluoro-15,21-dimethyl-5-(morpholin-4-yl)-23-oxa-2,9,11,15,20,21,26-heptaazaheptacyclo[26.2.2.1^{1,26}.1^{13,17}.0^{2,10}.0^{3,8}.0^{18,22}]tetratriaconta-3,5,7,9,13,17(34),18(22),19-octaene-12,16-dione]	–
